The nature of series [1]: solubility in water of compounds of the invention.
The subject of another series is Haemonchus contortus. Kind of series: anthelmintic efficacy in animals experimentally infected with Haemonchus contortus. The class given is in vivo, Meriones unguiculatus. On the procedure:
(§1) The compounds were tested at doses of 3 mg/kg bodyweight (BW), 1 mg/kg BW and 0.3 mg/kg BW.
The animals were orally infected with L3-larvae of H. contortus. On D 10 post infectionem (PI) animals were treated once IP, SC or PO with the test compounds in 10% DMF/90% water at doses of 3.0 mg/kg BW, 1.0 mg/kg BW or 0.3 mg/kg BW. Three days after treatment animals were necropsied and larvae burden in stomachs was determined. Efficacy was defined as the reduction of the mean larvae count (geometric mean) in the treatment groups in comparison to the control group. The dose-response relationship was investigated by calculating Pearson's coefficient of correlation.

For another series, the system named is T. colubriformis. The series is described as follows: anthelmintic efficacy in animals experimentally infected with T. colubriformis. The class given is in vivo, Meriones unguiculatus. The procedure: as §1
(§2) The animals were orally infected L3-larvae of each T. axei and T. colubriformis. On D 19 post infectionem (PI) animals were treated once IP, SC or PO with the test compounds in 10% DMF/90% water a dose of 3 mg/kg BW, 1 mg/kg BW or 0.3 mg/kg BW. Three days after treatment animals were necropsied and worm burden in stomach and small intestine was determined. Efficacy was defined as the reduction of the mean worm count (geometric mean) in the treatment groups in comparison to the control group. The dose-response relationship was investigated by calculating Pearson's coefficient of correlation.

The test system of another series is T. axei. Kind of series: anthelmintic efficacy in animals experimentally infected with Trichostrongylus axei. The class given is in vivo, Meriones unguiculatus. The procedure: as §1, §2
Series [2] concerns Oesophagostomum dentatum (nodular worm of swine), larval stages 3 and 4. Kind of series: in vitro larval assay, minimum effective concentration. The class given is cell-based. As to conditions: day 5, 20 larvae per well. On the procedure: (§3) Anthelmintic effects of the compounds of the present invention were tested in vitro using gut welling larval stages of two parasitic nematode species: Ascaridia galli (intestinal roundworm of chicken), larval stage 3 (L3), and Oesophagostomum dentatum (nodular worm of swine), larval stages 3 and 4 (L3; LA).
(§4) Principle of the assays: Various concentrations of compounds were incubated in 96 well microtiter plates, in which parasites were then distributed at 20 larvae per well. The anthelmintic effects were classified at day 5 by microscopic examination assessing mortality, damage, motility, progression of development and neutral red uptake by the larvae in comparison to a DMSO-control and the standard anthelmintics fenbendazole. The anthelmintic effects were defined by the minimum effective concentration (MEC) as reflected in table 1.

The test system of series [3] is Ascaridia galli (intestinal roundworm of chicken), larval stage 3 (L3). The series is described as above. The class given is cell-based. As to conditions: day 5, 20 larvae per well, microscopic examination. The procedure: as §3, §4
The conditions of series [4]: in water; literature; cited from earlier work.
The conditions of series [5]: reported; cited from earlier work.
Where [6] appears, read: 0.3 mg/kg BW once, IP (fenbendazole equivalent 0.3; Compound A 0.2 mg/kg).
[7] abbreviates: 0.3 mg/kg BW once, PO (fenbendazole equivalent 0.3; Compound A 0.2 mg/kg).
Where [8] appears, read: 0.3 mg/kg BW once, SC (fenbendazole equivalent 0.3; Compound A 0.2 mg/kg).
The mark [9] stands for this setting: 1 mg/kg BW once, IP (fenbendazole equivalent 1.0; Compound A 0.6 mg/kg).
[10] abbreviates: 1 mg/kg BW once, PO (fenbendazole equivalent 1.0; Compound A 0.6 mg/kg).
Where [11] appears, read: 1 mg/kg BW once, SC (fenbendazole equivalent 1.0; Compound A 0.6 mg/kg).
[12] abbreviates: 3 mg/kg BW once, IP (fenbendazole equivalent 3.0; Compound A 1.8 mg/kg).
The mark [13] stands for this setting: 3 mg/kg BW once, PO (fenbendazole equivalent 3.0; Compound A 1.8 mg/kg).
Where [14] appears, read: 3 mg/kg BW once, SC (fenbendazole equivalent 3.0; Compound A 1.8 mg/kg).
Where [15] appears, read: 3 mg/kg BW once, IP (fenbendazole equivalent 3.0; Compound A 1.8 mg/kg), listed as Fenbendazole.
Where [16] appears, read: 3 mg/kg BW once, PO (fenbendazole equivalent 3.0; Compound A 1.8 mg/kg), listed as Fenbendazole.
Setting [17] is: 3 mg/kg BW once, SC (fenbendazole equivalent 3.0; Compound A 1.8 mg/kg), listed as Fenbendazole.

≈ marks a conversion by molar mass, not a printed value. Where “and” joins values, the source holds several entries; their conditions need not be identical. Identical values can stand only once. Like-named read-outs stand apart in the source and are kept apart here. Where only a bound is given, the exact number is not on record here.

As usually defined, the solubility is how much of the substance goes into solution per volume. `CCCSc1ccc2c(c1)nc(NC(=O)OC)n2COP(=O)([O-])[O-].[Na+].[Na+]` [(1-phosphonooxymethyl-5- and 6-propylsulfanyl-1(H)-benzoimidazol-2-yl)-carbamic acid methyl esters]: in series [1] (water), the solubility is at least 50 mM.

As to `COC(=O)Nc1nc2ccc(Sc3ccccc3)cc2[nH]1` [fenbendazole, reference compound], the “Reduction worm number (%) H. contortus larvae” value with Haemonchus contortus (setting [6]) is 80.63%; in the series with Haemonchus contortus (setting [7]) it was 91.73%; in the series on Haemonchus contortus (setting [8]), 88.36%; with Haemonchus contortus (setting [9]), 89.33%; in the series with Haemonchus contortus (setting [10]), 78.05%; with Haemonchus contortus (setting [11]), 89.16%. Further, the figures for the “Reduction worm number (%) H. contortus larvae” value in the series on Haemonchus contortus (setting [12]), in the series with Haemonchus contortus (setting [13]) and with Haemonchus contortus (setting [14]) were 100.00%, 96.49% and 95.10%, respectively. Moreover, the “Reduction worm number (%) T. colubriformis” value was found to be 79.33% with T. colubriformis (setting [6]); 68.75% in the series with T. colubriformis (setting [7]); 43.18% in the series with T. colubriformis (setting [8]); 80.04% in the series on T. colubriformis (setting [9]); 80.04% with T. colubriformis (setting [10]); 81.10% with T. colubriformis (setting [11]). In addition, the “Reduction worm number (%) T. colubriformis” value was 100% in the series on T. colubriformis (setting [12]); 100.00% in the series on T. colubriformis (setting [15]); 100% with T. colubriformis (setting [13]); 100.00% in the series on T. colubriformis (setting [16]); 100% with T. colubriformis (setting [14]); 100.00% with T. colubriformis (setting [17]). Also, the “Reduction worm number (%) T. axei” value with T. axei (setting [6]) is −283.85%; with T. axei (setting [7]), −115.44%; in the series on T. axei (setting [8]), 82.15%; in the series with T. axei (setting [9]) it was 80.94%; in the series with T. axei (setting [10]), 88.80%; in the series on T. axei (setting [11]), 82.15%. Further, the “Reduction worm number (%) T. axei” value in the series on T. axei (setting [12]) was determined as 100%; with T. axei (setting [15]) it was 100.00%; in the series with T. axei (setting [13]), 100%; in the series with T. axei (setting [16]), 100.00%; with T. axei (setting [14]), 100%; with T. axei (setting [17]), 100.00%. In addition, in series [2] (L3), the “Minimum effective concentrations O. dentatum (L3)” value amounted to 1.000 µM. Moreover, the “Minimum effective concentrations O. dentatum (L4)” value in series [2] (L4) was 0.025 µM. Also, in series [3], the “Minimum effective concentrations A. galli (L3)” value worked out at 0.050 µM. In addition, the solubility entry in series [4] is “lower than 0.05 μg/mL”.

Consider `CCCSc1ccc([N+](=O)[O-])c(N/C(=N/CCS(=O)(=O)O)NC(=O)OC)c1` [netobimin], for which the embryonal toxicity result in series [5] is “reported to cause embryonal toxicity”.

As to `COc1ccc2[nH]c([S+]([O-])Cc3ncc(C)c(OC)c3C)nc2c1` (centres unmarked) [omeprazole], the solubility in series [4] was 500 µg/mL (≈ 1450 µM).

Regarding “(5- and 6-phenylsulfanyl-1-phosphonooxymethyl-1(H)-benzoimidazol-2-yl)-carbamic acid methyl esters [Compound A]”, the “Reduction worm number (%) H. contortus larvae” value in the series on Haemonchus contortus (setting [6]) is 65.02%; with Haemonchus contortus (setting [7]), 87.00%; with Haemonchus contortus (setting [8]) it was 47.40%; with Haemonchus contortus (setting [9]) it was 90.65%; in the series with Haemonchus contortus (setting [10]), 88.62%; with Haemonchus contortus (setting [11]) it was 87.61%. Besides, the “Reduction worm number (%) H. contortus larvae” value in the series on Haemonchus contortus (setting [12]) is on record as 93.81%; in the series with Haemonchus contortus (setting [13]), 90.81%; with Haemonchus contortus (setting [14]) it was 94.84%. Moreover, the “overall efficacy compared with fenbendazole” value in the series on Haemonchus contortus (H. contortus, all doses and routes) is “same efficacy as treatment with fenbendazole”; in the series on T. colubriformis (T. colubriformis, all doses and routes), “same efficacy as treatment with fenbendazole”; in the series on T. axei (T. axei, all doses and routes), “same efficacy as treatment with fenbendazole”. In addition, the “Reduction worm number (%) T. colubriformis” value in the series on T. colubriformis (setting [6]) is −50.17%; in the series on T. colubriformis (setting [7]), −3.71%; in the series with T. colubriformis (setting [8]), −106.50%; with T. colubriformis (setting [9]) it was 28.18%; in the series with T. colubriformis (setting [10]), 37.27%; in the series on T. colubriformis (setting [11]), 68.61%. For the same compound, the results for the “Reduction worm number (%) T. colubriformis” value in the series on T. colubriformis (setting [12]), in the series with T. colubriformis (setting [13]) and in the series on T. colubriformis (setting [14]) were 93.26%, 100.00% and 85.70%, respectively. Moreover, the “Reduction worm number (%) T. axei” value is 69.66% with T. axei (setting [6]); 59.20% with T. axei (setting [7]); −43.64% with T. axei (setting [8]); 43.64% with T. axei (0.3 mg/kg BW once, SC (fenbendazole equivalent 0.3; Compound A 0.2 mg/kg), listed as compound A); 83.98% in the series on T. axei (setting [9]); 96.71% in the series with T. axei (setting [10]). Further, the “Reduction worm number (%) T. axei” value in the series on T. axei (setting [11]) came to 82.98%; with T. axei (setting [12]), 100.00%; with T. axei (3 mg/kg BW once, IP (fenbendazole equivalent 3.0; Compound A 1.8 mg/kg), listed as compound A), 100%; with T. axei (setting [13]), 98.00%; in the series with T. axei (setting [14]), 100.00%; in the series with T. axei (3 mg/kg BW once, SC (fenbendazole equivalent 3.0; Compound A 1.8 mg/kg), listed as compound A), 100%.

In the case of “(5- and 6-phenylsulfanyl-1-phosphonooxymethyl-1(H)-benzoimidazol-2-yl)-carbamic acid methyl esters di-sodium salts”, the solubility in water in series [1] is 132 mM and 67 g/L.

Values taken from patent US7893271B2, “Benzimidazole carbamates and (thio) carbamates, and the synthesis and use thereof” (Intervet International B.V., priority 2005, dated 2011).
